From patent US12162840B2, “Herbicidal compositions” (SYNGENTA PARTICIPATIONS AG, priority 2018, dated 2024)

Tested on: cool season plant species
Assay: B2 Post-emergence efficacy Test 2, cool season plant species
Assay type: in vivo
Settings: 15 days after application, 0=no damage, 100=total kill
Method: Seeds of a variety of test species (see Table B1) were sown in standard soil in pots. After cultivation for 12 days (post-emergence) under controlled conditions in a glasshouse (at 24/18° C. or 20/16° C., at day/night; 16 hours light; 65% humidity), the plants were sprayed with an aqueous spray solution derived from the formulation of the technical active ingredient dissolved in IF50 (see Table B2 for composition) and adjuvant (Genapol XO80) was added to the spray solution at a rate of 0.2% v/v. [table] [table] After application, the test plants were grown in a glasshouse under controlled conditions (as above) and watered twice daily. Herbicidal activity was evaluated 15 days after application on a 0-100 scale. The results, where 0=no damage to test plant and 100=total kill of test plant are shown below in Tables 6 to 9.

Cc1nn(C)c(=O)c(-c2c(F)ccc(Cl)c2CCc2ccc(C#N)cc2)c1O [Compound 1.024]
Herbicidal activity (0-100 scale) ALOMY (15 g/Ha): 10
Herbicidal activity (0-100 scale) ALOMY (30 g/Ha): 30
Herbicidal activity (0-100 scale) ALOMY (60 g/Ha): 50
Herbicidal activity (0-100 scale) ALOMY (125 g/Ha): 70
Herbicidal activity (0-100 scale) ALOMY (250 g/Ha): 70
Herbicidal activity (0-100 scale) ALOMY (500 g/Ha): 70
Herbicidal activity (0-100 scale) AVEFA (15 g/Ha): 10
Herbicidal activity (0-100 scale) AVEFA (30 g/Ha): 20
Herbicidal activity (0-100 scale) AVEFA (60 g/Ha): 30
Herbicidal activity (0-100 scale) AVEFA (125 g/Ha): 60
Herbicidal activity (0-100 scale) AVEFA (250 g/Ha): 70
Herbicidal activity (0-100 scale) AVEFA (500 g/Ha): 80
Herbicidal activity (0-100 scale) BEAVA (15 g/Ha): 70
Herbicidal activity (0-100 scale) BEAVA (30 g/Ha): 70
Herbicidal activity (0-100 scale) BEAVA (60 g/Ha): 80
Herbicidal activity (0-100 scale) BEAVA (125 g/Ha): 80
Herbicidal activity (0-100 scale) BEAVA (250 g/Ha): 80
Herbicidal activity (0-100 scale) BEAVA (500 g/Ha): 100
Herbicidal activity (0-100 scale) BROTE (15 g/Ha): 0
Herbicidal activity (0-100 scale) BROTE (30 g/Ha): 0
Herbicidal activity (0-100 scale) BROTE (60 g/Ha): 10
Herbicidal activity (0-100 scale) BROTE (125 g/Ha): 20
Herbicidal activity (0-100 scale) BROTE (250 g/Ha): 40
Herbicidal activity (0-100 scale) BROTE (500 g/Ha): 70
Herbicidal activity (0-100 scale) BRSNN (15 g/Ha): 80
Herbicidal activity (0-100 scale) BRSNN (30 g/Ha): 90
Herbicidal activity (0-100 scale) BRSNN (60 g/Ha): 90
Herbicidal activity (0-100 scale) BRSNN (125 g/Ha): 90
Herbicidal activity (0-100 scale) BRSNN (250 g/Ha): 90
Herbicidal activity (0-100 scale) BRSNN (500 g/Ha): 90
Herbicidal activity (0-100 scale) CHEAL (15 g/Ha): 60
Herbicidal activity (0-100 scale) CHEAL (30 g/Ha): 90
Herbicidal activity (0-100 scale) CHEAL (60 g/Ha): 90
Herbicidal activity (0-100 scale) CHEAL (125 g/Ha): 90
Herbicidal activity (0-100 scale) CHEAL (250 g/Ha): 90
Herbicidal activity (0-100 scale) CHEAL (500 g/Ha): 100
Herbicidal activity (0-100 scale) GALAP (30 g/Ha): 20
Herbicidal activity (0-100 scale) GALAP (60 g/Ha): 20
Herbicidal activity (0-100 scale) GALAP (125 g/Ha): 60
Herbicidal activity (0-100 scale) GALAP (250 g/Ha): 90
Herbicidal activity (0-100 scale) GALAP (500 g/Ha): 90
Herbicidal activity (0-100 scale) HORVW (15 g/Ha): 0
Herbicidal activity (0-100 scale) HORVW (30 g/Ha): 10
Herbicidal activity (0-100 scale) HORVW (60 g/Ha): 10
Herbicidal activity (0-100 scale) HORVW (125 g/Ha): 10
Herbicidal activity (0-100 scale) HORVW (250 g/Ha): 10
Herbicidal activity (0-100 scale) HORVW (500 g/Ha): 20
Herbicidal activity (0-100 scale) KCHSC (15 g/Ha): 0
Herbicidal activity (0-100 scale) KCHSC (30 g/Ha): 0
Herbicidal activity (0-100 scale) KCHSC (60 g/Ha): 0
Herbicidal activity (0-100 scale) KCHSC (125 g/Ha): 10
Herbicidal activity (0-100 scale) KCHSC (250 g/Ha): 10
Herbicidal activity (0-100 scale) KCHSC (500 g/Ha): 20
Herbicidal activity (0-100 scale) LOLPE (15 g/Ha): 10
Herbicidal activity (0-100 scale) LOLPE (30 g/Ha): 70
Herbicidal activity (0-100 scale) LOLPE (60 g/Ha): 70
Herbicidal activity (0-100 scale) LOLPE (125 g/Ha): 90
Herbicidal activity (0-100 scale) LOLPE (250 g/Ha): 90
Herbicidal activity (0-100 scale) LOLPE (500 g/Ha): 90
Herbicidal activity (0-100 scale) POAAN (15 g/Ha): 10
Herbicidal activity (0-100 scale) POAAN (30 g/Ha): 20
Herbicidal activity (0-100 scale) POAAN (60 g/Ha): 30
Herbicidal activity (0-100 scale) POAAN (125 g/Ha): 80
Herbicidal activity (0-100 scale) POAAN (250 g/Ha): 80
Herbicidal activity (0-100 scale) POAAN (500 g/Ha): 90
Herbicidal activity (0-100 scale) POLCO (15 g/Ha): 80
Herbicidal activity (0-100 scale) POLCO (60 g/Ha): 90
Herbicidal activity (0-100 scale) POLCO (125 g/Ha): 90
Herbicidal activity (0-100 scale) POLCO (250 g/Ha): 90
Herbicidal activity (0-100 scale) POLCO (500 g/Ha): 100
Herbicidal activity (0-100 scale) SINAR (15 g/Ha): 80
Herbicidal activity (0-100 scale) SINAR (30 g/Ha): 80
Herbicidal activity (0-100 scale) SINAR (60 g/Ha): 80
Herbicidal activity (0-100 scale) SINAR (250 g/Ha): 90
Herbicidal activity (0-100 scale) SINAR (500 g/Ha): 100
Herbicidal activity (0-100 scale) STEME (15 g/Ha): 90
Herbicidal activity (0-100 scale) STEME (30 g/Ha): 90
Herbicidal activity (0-100 scale) STEME (60 g/Ha): 90
Herbicidal activity (0-100 scale) STEME (125 g/Ha): 90
Herbicidal activity (0-100 scale) STEME (250 g/Ha): 90
Herbicidal activity (0-100 scale) STEME (500 g/Ha): 100
Herbicidal activity (0-100 scale) TRZAW (15 g/Ha): 0
Herbicidal activity (0-100 scale) TRZAW (30 g/Ha): 0
Herbicidal activity (0-100 scale) TRZAW (60 g/Ha): 20
Herbicidal activity (0-100 scale) TRZAW (125 g/Ha): 30
Herbicidal activity (0-100 scale) TRZAW (250 g/Ha): 60
Herbicidal activity (0-100 scale) TRZAW (500 g/Ha): 70
Herbicidal activity (0-100 scale) VERPE (15 g/Ha): 80
Herbicidal activity (0-100 scale) VERPE (30 g/Ha): 80
Herbicidal activity (0-100 scale) VERPE (60 g/Ha): 90
Herbicidal activity (0-100 scale) VERPE (125 g/Ha): 80
Herbicidal activity (0-100 scale) VERPE (250 g/Ha): 100
Herbicidal activity (0-100 scale) VERPE (500 g/Ha): 100
